Values of other authors, collected in PMC11444200, “In Vitro Evaluation of Antipseudomonal Activity and Safety Profile of Peptidomimetic Furin Inhibitors” (Biomedicines, 2024).
Where two headings read alike, the source gives them in different places.

Experiments:
CYP3A4 = conditions: cited from earlier work
furin = conditions: read-out: Ki (furin); cited from earlier work
[1] = test system: Mas-related G protein–coupled receptor X2 (MRGPRX2); set-up: method as in PMID 38385828; conditions: compared to MI-1851 and MI-2415; cited from earlier work
[2] = set-up: method as in PMID 29059503; conditions: cited from earlier work
mice = conditions: mice, cited from earlier work

SMILES: N=C(N)c1cccc(C[C@H](NS(=O)(=O)c2cccc(-c3ccc(Cl)cc3Cl)c2)C(=O)N2CCC(CCN)CC2)c1.O=C(O)C(F)(F)F.O=C(O)C(F)(F)F [MI-432]
- CYP3A4 inhibition (CYP3A4; compared with MI-1851 and MI-2415): inhibit CYP3A4 already at considerably lower concentrations

SMILES: CC(C)(C)[C@H](NC(=O)[C@H](CCCN=C(N)N)NC(=O)Cc1ccc(CN=C(N)N)cc1)C(=O)N[C@@H](CCCN=C(N)N)C(=O)NCc1ccc(C(=N)N)cc1 [MI-1148, 4-guanidinomethyl-phenylacetyl-Arg-Tle-Arg-4-Amba, reference compound]
- Ki (furin): 5.5 pM
- activation of MRGPRX2 [1]: much stronger activation
- stability in human plasma [2]: high stability
- mortality (mice; 5 mg/kg i.p.): all four mice died
- maximum tolerated dose (mice; i.p.): 2.5 mg/kg

SMILES: COc1ccc(-c2cccc(S(=O)(=O)N[C@@H](Cc3cccc(C(=N)N)c3)C(=O)N3CCN(C(=O)NC4CCCCC4)CC3)c2)c(OC)c1 [MI-1900]
- CYP3A4 inhibition (CYP3A4): inhibit CYP3A4 already at considerably lower concentrations
